PMC4063695, “Design of Embedded-Hybrid Antimicrobial Peptides with Enhanced Cell Selectivity and Anti-Biofilm Activity” (PLoS ONE, 2014)
No end group written: not given here.

Key:
[1] = test system: S.faecalis ATCC29212; conditions: S.faecalis ATCC29212; MHB, 37°C, 18-24 h; at least three times in duplicate
Excerpt: (§1) E. coli ATCC25922, P. aeruginosa ATCC27853, S. aureus ATCC29213, S. epidermidis ATCC12228, S. faecalis ATCC29212 and B. subtilis CMCC63501 were obtained from the College of Veterinary Medicine, Northeast Agricultural University (Harbin, China), E. coli K88, E. coli CVCC1515 and P. aeruginosa ATCC15442 were bestowed by Prof. J.H. Wang (Gene Engineering Laboratory, Feed Research Institute, Chinese Academy of Agricultural Sciences Beijing, China) and E. coli UB1005 was kindly provided by Prof. Q.S. Qi (State Key Laboratory of Microbial Technology, Shandong University, China). […] Briefly, 50 µl of approximate 0.5–1 × 10^6 colony forming units (CFU)/ml of cells were diluted in Mueller-Hinton broth and distributed to 96-well plate, 50 µl of twofold peptides were added and the plates was incubated at 37°C for 18–24 h. The MIC values were calculated as the lowest peptide concentration that prevented visible turbidity and negative control of the pure broth without microbes. The tests were performed at least three times in duplicate.

[2] = test system: S. pullorum C79-13; conditions: S. pullorum C79-13; MHB, 37°C, 18-24 h; at least three times in duplicate
Excerpt: as §1

[3] = test system: S.epidermidis ATCC12228; conditions: S.epidermidis ATCC12228; MHB, 37°C, 18-24 h; at least three times in duplicate
Excerpt: as §1

[4] = test system: P. aeruginosa ATCC27853; conditions: P. aeruginosa ATCC27853; MHB, 37°C, 18-24 h; at least three times in duplicate
Excerpt: as §1

[5] = test system: E. coli K88; conditions: MHB, 37°C, 18-24 h, at least three times in duplicate
Excerpt: as §1

[6] = test system: S.aureus ATCC29213; conditions: S.aureus ATCC29213; MHB, 37°C, 18-24 h; at least three times in duplicate
Excerpt: as §1

[7] = Circular dichroism, secondary structure; format: physicochemical; conditions: 150 µM peptide, 25°C, from [θ]222
Description: The CD spectra were measured with a CD spectropolarimeter (Jasco, J-820, Tokyo, Japan) at 25°C, using a 0.1 cm path length rectangular quartz cell. The spectra were recorded at between 190 and 250 nm at 10 nm/min scanning speed. At least three scans were conducted for each peptide sample.
The acquired CD spectra were converted to the mean residue ellipticity through the following equation: [drawing 1]
where θM is the mean residue ellipticity [deg.cm2.dmol-1], θobs is the observed ellipticity corrected for the buffer at a given wavelength [mdeg], c is the peptide concentration [mM], l is the path length [mm], and n is the number of amino acids.
The percentage of α-helical structure was calculated as followings: [drawing 2]
where [θ]222 is the experimentally observed mean residue ellipticity at 222 nm, and values for [θ]^0 and [θ]^100 which correspond to 0 and 100% a-helix content at 222 nm, are estimated to be −2000 and −32000, respectively, [29].

[8] = test system: E. coli ATCC25922; assay: Kinetics of bacterial killing; format: cell-based, Escherichia coli; conditions: 1× MIC, within 30 min, 37°C, PBS; mean of three repeats
Description: Kinetics of the bacterial killing was measured by using E. coli ATCC25922 in logarithmic phase (10^8 CFU/mL). The above bacteria were diluted to 1/1000 with PBS, and 500 µL solutions was added with 500 µL PBS at different final concentrations (1/4, 1/2 and 1 × MIC). The solutions were incubated for 0.5 min, 1 min, 2.5 min, 5 min, 10 min, 20 min, and 40 min at 37°C. The moderately diluted samples were plated on nutrient agar plate (MHA). The bacterial colonies were counted after incubation for 18 h at 37°C. The results were determined and presented as the mean of three repeats.

[9] = test system: E. coli UB1005; assay: Cytoplasmic membrane electrical potential, diSC3-5; format: cell-based, Escherichia coli; conditions: diSC3-5 release over 600 s
Description: Peptides could alter the electrical potential of cytoplasmic membrane, and this potential that was measured by using E. coli UB1005 cells and diSC3-5 (Sigma), a membrane potential-sensitive fluorescent dye, as previously described, [35]. E. coli UB1005 was cultured to logarithmic phase in MHB, harvested by centrifugation, washed twice with buffer (5 mM of HEPES and 20 mM of glucose, pH 7.4) and resuspended to an OD600 of 0.05 in the identical buffer. The dye (diSC3-5) was added to above buffer at a final concentration of 0.4 µM. And the bacteria were incubated to take up the dye for 90 min. KCl was added to a final concentration of 0.1 M for equilibrating K^+ concentration between extracellular and intracellular environment, and then the bacteria were incubated at room temperature for 10 min. The cell suspension (2 ml) was placed in a 1-cm cuvette, and the peptides were added to different concentrations. The fluorescence intensity changes were monitored by using an F-4500 fluorescence spectrophotometer (Hitachi, Japan) with an excitation wavelength of 622 nm and an emission wavelength of 670 nm.

[10] = test system: E. coli ATCC25922; assay: MIC in the presence of physiological salts; format: cell-based, Escherichia coli; set-up: unit not given here
Excerpt: as §1
The stability of peptides was tested in the MIC assay in different environments, including salt sensitivity, human serum, thermal stability and susceptibility to enzymes. For salt sensitivity, 0.5–1 × 10^6 CFU/ml of P. aeruginosa ATCC27853 and E. coli ATCC25922 were treated with peptides, while different salts were added to MHB, and the final concentrations of physiological salts were as follows: 150 mM NaCl, 4.5 mM KCl, 1 mM MgCl2, 6 µM NH4Cl, 8 µM ZnCl2, 4 µM FeCl3 and […] [33]. Except salt sensitivity, only E. coli ATCC25922 was treated with peptides. […] For testing peptide sensitivity to the proteolytic enzymes, the peptides were incubated in advance at 37°C for 1 h with a 1 mg/ml final concentration of the proteolytic enzymes (trypsin, pepsin, papain and proteinase K). For testing thermal stability, incubation occurred at 100°C for 1 h. After these treatments, the procedures were same as MIC assay described above.

Substance: RFRRLFRIRVRVLKKI-NH2 [R-FV-I16]
- MIC [1]: 1 µM
- MIC [2]: 1 µM
- MIC [3]: 4 µM
- MIC [4]: 4 µM
- MIC [5]: 2 µM
- MIC [6]: 2 µM
- α-helical content ([7]; 30 mM SDS): 36%
- α-helical content ([7]; 50% TFE): 69%
- reduction of colony count [8]: 99%
- cytoplasmic membrane depolarization (in words) [9]: able to permeabilize the bacterial cell membrane even at a lower concentration than their MICs
- MIC, FeCl3 ([10]; 4 µM FeCl3 in MHB): 1
- MIC, NH4Cl ([10]; 6 µM NH4Cl in MHB): 1
- MIC, ZnCl2 ([10]; 8 µM ZnCl2 in MHB): 1
- MIC, MgCl2 ([10]; 1 mM MgCl2 in MHB): 4
- MIC, KCl ([10]; 4.5 mM KCl in MHB): 1
- MIC, NaCl ([10]; 150 mM NaCl in MHB): 4
- MIC, Mix ([10]; all kinds of salts in physiological concentrations): 8
- MIC, CaCl2 ([10]; in MHB): 1
- MIC, Control ([10]; no added salts, unit not given): 1
